Assay results from US20220289698A1, “INHIBITORS OF HUMAN ATGL” (Karl-Franzens-Universität Graz, priority 2019, published 2022).
Where two headings read alike, the source gives them in different places.

Key:
[1] = target: T1, human ATGL (Homo sapiens, UniProt Q96AD5); assay: Ki determination, human ATGL lysates with increasing substrate concentrations; format: biochemical; conditions: non-linear regression
T1 construct: made in house; host or cells: Expi cells (lysate, not purified)
T1 sequence (Q96AD5 1-504): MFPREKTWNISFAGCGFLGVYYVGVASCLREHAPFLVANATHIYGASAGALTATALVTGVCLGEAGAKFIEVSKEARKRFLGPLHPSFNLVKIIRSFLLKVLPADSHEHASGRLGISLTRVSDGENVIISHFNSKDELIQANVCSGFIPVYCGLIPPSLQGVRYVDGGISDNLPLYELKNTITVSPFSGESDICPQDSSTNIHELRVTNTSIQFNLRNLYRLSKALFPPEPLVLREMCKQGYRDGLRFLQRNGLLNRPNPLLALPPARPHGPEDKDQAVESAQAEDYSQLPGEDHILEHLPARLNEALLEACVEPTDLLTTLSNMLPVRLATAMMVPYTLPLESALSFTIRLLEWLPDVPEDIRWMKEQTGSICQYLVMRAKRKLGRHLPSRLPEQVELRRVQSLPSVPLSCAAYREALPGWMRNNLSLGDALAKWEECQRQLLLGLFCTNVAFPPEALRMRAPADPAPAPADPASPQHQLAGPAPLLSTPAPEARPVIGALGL
Protocol: For determination of Ki values, lysates from Expi cells overexpressing human ATGL were incubated with recombinant purified ATGL co-activator CGI-58 and ATGL inhibitors at a single concentration dependent on the previously determined IC50. Increasing concentrations of substrate containing radiolabeled triolein were added and liberated FA were extracted and quantified by liquid scintillation. Inhibitors were dissolved in DMSO which was used as control. Ki was determined via non-linear regression analysis. Samples were measured in triplicates.

[2] = system: differentiated SGBS adipocytes; assay: Isoproterenol-stimulated lipolysis in differentiated SGBS adipocytes; format: cell-based; conditions: Homo sapiens, 2 h pretreatment, 1 μM isoproterenol 1 h
Protocol: Human differentiated SGBS adipocytes were pretreated with DMSO or ATGL inhibitors for 2 h. Subsequently, lipolysis was stimulated with 1 μM Isoproterenol for 1 h and fatty acid release was determined from media via NEFA Reagent (Wako Diagnostics). Samples were measured in triplicates.
Human differentiated SGBS adipocytes were pretreated with DMSO or ATGL inhibitors for 2 h. Subsequently, lipolysis was stimulated with 1 μM Isoproterenol for 1 h and glycerol release was determined from media via Free glycerol reagent (Sigma Aldrich). Samples were measured in triplicates.

[3] = system: differentiated 3T3-L1 adipocytes; assay: Isoproterenol-stimulated lipolysis in differentiated 3T3-L1 adipocytes; format: cell-based; conditions: Mus musculus, 2 h pretreatment
Protocol: Mouse differentiated 3T3-L1 adipocytes were pretreated with DMSO or ATGL inhibitors for 2 h. Subsequently, lipolysis was stimulated with 1 μM Isoproterenol for 1 h and fatty acid release was determined from media via NEFA Reagent (Wako Diagnostics). Samples were measured in triplicates.
Mouse differentiated 3T3-L1 adipocytes were pretreated with DMSO or ATGL inhibitors for 2 h. Subsequently, lipolysis was stimulated with 1 μM Isoproterenol for […] and glycerol release was determined from media via Free glycerol reagent (Sigma Aldrich). Samples were measured in triplicates.

[4] = target: T2, rat ATGL (Rattus norvegicus, UniProt P0C548); assay: Rat ATGL inhibition, Expi lysates + CGI-58; format: biochemical
T2 construct: made in house; host or cells: Expi cells (lysate)
T2 sequence (P0C548 1-478): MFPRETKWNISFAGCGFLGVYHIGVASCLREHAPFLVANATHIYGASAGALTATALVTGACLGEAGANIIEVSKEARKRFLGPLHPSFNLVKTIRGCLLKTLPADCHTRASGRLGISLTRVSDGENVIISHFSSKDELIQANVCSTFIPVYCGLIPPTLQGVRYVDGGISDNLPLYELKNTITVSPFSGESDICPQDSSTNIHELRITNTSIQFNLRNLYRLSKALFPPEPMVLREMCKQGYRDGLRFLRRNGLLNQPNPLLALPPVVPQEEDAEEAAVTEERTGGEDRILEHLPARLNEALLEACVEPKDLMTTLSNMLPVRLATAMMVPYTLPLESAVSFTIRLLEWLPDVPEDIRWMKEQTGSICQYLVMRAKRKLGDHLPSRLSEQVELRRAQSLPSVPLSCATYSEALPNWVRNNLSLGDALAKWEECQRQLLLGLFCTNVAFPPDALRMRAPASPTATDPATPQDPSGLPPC
Protocol: (§1) Lysates from Expi cells overexpressing ATGL from rat (Rattus norvegicus) were incubated with recombinant purified ATGL co-activator CGI-58 and ATGL inhibitors at 50 μM. Subsequently, substrate containing radiolabeled triolein was added and liberated FA were extracted and quantified by liquid scintillation. Inhibitors were dissolved in DMSO which was used as control. Samples were measured in triplicates.

[5] = system: rhesus monkey ATGL; assay: Rhesus monkey ATGL inhibition, Expi lysates + CGI-58; format: biochemical
Protocol: as §1, with “rhesus monkeys (Macaca mulatta)” for “rat (Rattus norvegicus)”

[6] = system: goat ATGL; assay: Goat ATGL inhibition, Expi lysates + CGI-58; format: biochemical
Protocol: as §1, with “goat (Capra hircus)” for “rat (Rattus norvegicus)”

[7] = system: AML-12 cells; assay: Toxicity screening (LDH) in AML-12 cells; format: cell-based, mouse; conditions: 24 h treatment, LDH release
Protocol: AML-12 cells were seeded in 96 well plates and at 80% confluency treated with DMSO (0.5% final conc.) or ATGL Inhibitors for 24 h in DMEM+P/S+3% heat inactivated FCS (3 h at 62° C.). Subsequently, medium was centrifuged at 300 g for 3 min, and LDH activity of 50 μl supernatant was determined via the Roche LDH Kit. Samples measured in triplicates.

[8] = system: HepG2 cells; assay: Toxicity screening (LDH) in HepG2 cells; format: cell-based, human; conditions: 24 h treatment, LDH release
Protocol: HepG2 cells were seeded in 96 well plates and at 50% confluency treated with DMSO (0.5% final conc.) or ATGL Inhibitors for 24 h in DMEM+P/S+3% heat inactivated FCS (3 h at 62° C.). Subsequently, LDH activity of 50 μl medium was determined via the Roche LDH Kit. Samples measured in triplicates.

[9] = fatty acid release, read-out: IC50 SGBS FA release
[10] = glycerol release, read-out: IC50 SGBS glycerol release
[11] = 1 μM isoproterenol 1 h, fatty acid release, read-out: IC50 3T3 FA release
[12] = 1 μM isoproterenol, glycerol release, read-out: IC50 3T3 glycerol release

SMILES: CCOc1ccc(-c2cc(OC)cc(C(=O)OC(C)C)n2)cc1 [Example 35]
- Ki [1]: 0.5 µM
- IC50 [2, 9]: 1 µM
- IC50 [2, 10]: 2 µM
- melting point: 79 to 81 °C

SMILES: CCOc1ccc(-c2nc(C(=O)OCc3ccoc3)cs2)cc1 [Example 216, Furan-3-ylmethyl 2-(4-ethoxyphenyl)thiazole-4-carboxylate]
- IC50 [2, 9]: 0.8 µM
- IC50 [2, 10]: 1 µM
- IC50 [3, 11]: 10 µM
- IC50 [3, 12]: 25 µM
- inhibition at 50 µM [4]: 50%
- rhesus monkey ATGL inhibition [% inhibition at 50 μM] [5]: 70%
- goat ATGL inhibition [% inhibition at 50 μM [6]: 50%
- Tox AML-12 (LDH) seen from [7]: 50 µM

SMILES: C#C[C@@H](C)OC(=O)c1csc(-c2ccc(OCC)cc2)n1 [Example 211, (R)-But-3-yn-2-yl 2-(4-ethoxyphenyl)thiazole-4-carboxylate]
- IC50 [2, 9]: 0.9 µM
- IC50 [2, 10]: 0.9 µM
- IC50 [3, 11]: 4 µM
- IC50 [3, 12]: 20 µM
- inhibition at 50 µM [4]: 50%
- rhesus monkey ATGL inhibition [% inhibition at 50 μM] [5]: 100%
- goat ATGL inhibition [% inhibition at 50 μM [6]: 30%
- Tox AML-12 (LDH) seen from [7]: 100 µM

SMILES: CCOc1ccc(-c2cccc(C(=O)OCc3cccs3)n2)cc1 [Example 189, Thiophen-2-ylmethyl 6-(4-ethoxyphenyl)picolinate]
- inhibition at 50 µM [4]: 10%
- rhesus monkey ATGL inhibition [% inhibition at 50 μM] [5]: 70%
- goat ATGL inhibition [% inhibition at 50 μM [6]: 50%
- Tox AML-12 (LDH) seen from [7]: 200 µM
- melting point: 93 to 94 °C

SMILES: CCOc1ccc(-c2cccc(C(=O)OCc3ccco3)n2)cc1 [Example 190, Furan-2-ylmethyl 6-(4-ethoxyphenyl)picolinate]
- IC50 [2, 9]: 12 µM
- IC50 [2, 10]: 25 µM
- IC50 [3, 11]: 6 µM
- IC50 [3, 12]: 25 µM
- inhibition at 50 µM [4]: 40%
- rhesus monkey ATGL inhibition [% inhibition at 50 μM] [5]: 70%
- goat ATGL inhibition [% inhibition at 50 μM [6]: 25%
- Tox AML-12 (LDH) seen from [7]: 200 µM
- melting point: 76 to 80 °C

SMILES: CCCCOC(=O)c1csc(-c2ccc(OCC)cc2)n1 [Example 212, Butyl 2-(4-ethoxyphenyl)thiazole-4-carboxylate]
- inhibition at 50 µM [4]: 40%
- rhesus monkey ATGL inhibition [% inhibition at 50 μM] [5]: 70%
- goat ATGL inhibition [% inhibition at 50 μM [6]: 20%
- Tox AML-12 (LDH) seen from [7]: 200 µM

SMILES: CCOc1ccc(-c2nc(C(=O)OCc3ccsc3)cs2)cc1 [Example 215, Thiophen-3-ylmethyl 2-(4-ethoxyphenyl)thiazole-4-carboxylate]
- IC50 [2, 9]: 3 µM
- IC50 [2, 10]: 4 µM
- IC50 [3, 11]: 6 µM
- IC50 [3, 12]: 15 µM
- inhibition at 50 µM [4]: 50%
- rhesus monkey ATGL inhibition [% inhibition at 50 μM] [5]: 70%
- goat ATGL inhibition [% inhibition at 50 μM [6]: 50%

SMILES: CCOc1ccc(-c2nc(C(=O)OCc3ccc(Cl)s3)cs2)cc1 [Example 223, (5-Chlorothiophen-2-yl)methyl 2-(4-ethoxyphenyl)thiazole-4-carboxylate]
- inhibition at 50 µM [4]: 40%
- rhesus monkey ATGL inhibition [% inhibition at 50 μM] [5]: 65%
- goat ATGL inhibition [% inhibition at 50 μM [6]: 40%

SMILES: CC#CCOC(=O)c1csc(-c2ccc(OCC)cc2)n1 [Example 209, But-2-yn-1-yl 2-(4-ethoxyphenyl)thiazole-4-carboxylate]
- inhibition at 50 µM [4]: 40%
- rhesus monkey ATGL inhibition [% inhibition at 50 μM] [5]: 70%
- goat ATGL inhibition [% inhibition at 50 μM [6]: 25%
- Tox HepG2 (LDH) seen from [8]: 200 µM
- Tox AML-12 (LDH) seen from [7]: 100 µM

SMILES: CCOc1ccc(-c2nc(C(=O)OCc3ccc(Br)s3)cs2)cc1 [Example 224, (5-Bromothiophen-2-yl)methyl 2-(4-ethoxyphenyl)thiazole-4-carboxylate]
- inhibition at 50 µM [4]: 40%
- rhesus monkey ATGL inhibition [% inhibition at 50 μM] [5]: 70%
- goat ATGL inhibition [% inhibition at 50 μM [6]: 40%

SMILES: C#C[C@H](C)OC(=O)c1csc(-c2ccc(OCC)cc2)n1 [Example 210, (S)-But-3-yn-2-yl 2-(4-ethoxyphenyl)thiazole-4-carboxylate]
- IC50 [2, 9]: 0.6 µM
- IC50 [2, 10]: 1 µM
- inhibition at 50 µM [4]: 15%
- rhesus monkey ATGL inhibition [% inhibition at 50 μM] [5]: 90%
- goat ATGL inhibition [% inhibition at 50 μM [6]: 20%
- Tox AML-12 (LDH) seen from [7]: 200 µM

SMILES: COc1cc(C(=O)OC(C)C)nc(-c2ccc(OC(C)C)cc2)c1 [Example 201, Isopropyl 6-(4-isopropoxyphenyl)-4-methoxypicolinate]
- inhibition at 50 µM [4]: 0%
- rhesus monkey ATGL inhibition [% inhibition at 50 μM] [5]: 95%
- goat ATGL inhibition [% inhibition at 50 μM [6]: 0%
- Tox AML-12 (LDH) seen from [7]: 200 µM
- melting point: 70 to 71 °C

SMILES: CCOc1ccc(-c2nc(C(=O)OCc3cccs3)cs2)cc1 [Example 152, Thiophen-2-ylmethyl 2-(4-ethoxyphenyl)thiazole-4-carboxylate]
- Ki [1]: 8.2 µM
- inhibition at 50 µM [4]: 10%
- rhesus monkey ATGL inhibition [% inhibition at 50 μM] [5]: 10%
- goat ATGL inhibition [% inhibition at 50 μM [6]: 0%
- Tox HepG2 (LDH) seen from [8]: 200 µM
